Assay results from patent US11964950B2, “Arylamide derivative having antitumor activity” (priority 2020, dated 2024).

system: A549 human lung cancer cells; test: Cell proliferation-inhibiting activity, A549 (CellTiter-Glo, ATP in viable cells); type: cell-based; details: A549, 96 h, Table 3, 4 days culture
Method: (§1) The cell proliferation-inhibiting activity of the compounds listed in Table 3 below was evaluated by measuring the amount of ATP in viable cells as described below.
(§2) The test compound was serially diluted with DMSO and then diluted 25-fold with Ca^2+, Mg^2+-free phosphate-buffered saline, and was then dispensed into a 96-well plate at 5 μL per well. A cell suspension containing the below indicated concentration of A549, Calu-6 or NCI-H2122 human lung cancer cells (all obtained from ATCC) was prepared using the below indicated medium with the addition of 10% fetal bovine serum (Sigma). The cell suspension was dispensed into the test compound-added plate at 95 μL per well and cultured in a 5% carbon dioxide gas incubator at 37° C. After 4 days, 80 μL of CellTiter-Glo (registered trademark) (Promega Corp.) was added to each well and the bioluminescence was measured with a fluorescent plate reader.
A549: Dulbecco's Modified Eagle's Medium (Sigma); 2000 cells/95 μL

In order of falling IC50:
1. COCCNS(=O)(=O)Nc1nccc(Cc2cc(C(N)=O)c(Nc3ccc(I)cc3F)cc2F)c1F [1-4, 4-Fluoro-2-(2-fluoro-4-iodoanilino)-5-[[3-fluoro-2-(2-methoxyethylsulfamoylamino)pyridin-4-yl]methyl]benzamide]  444 nM
2. COCCNS(=O)(=O)Nc1nccc(Cc2cc(C(N)=O)c(Nc3ccc(I)cc3F)n(C)c2=O)c1F [J-2, 2-(2-Fluoro-4-iodoanilino)-5-[[3-fluoro-2-(2-methoxyethylsulfamoylamino)pyridin-4-yl]methyl]-1-methyl-6-oxopyridine-3-carboxamide]  351 nM
3. CCS(=O)(=O)Nc1cc(Cc2cc(C(N)=O)c(Nc3ccc(I)cc3F)n(C)c2=O)ccn1 [J-12, 5-[[2-(Ethylsulfonylamino)pyridin-4-yl]methyl]-2-(2-fluoro-4-iodoanilino)-1-methyl-6-oxopyridine-3-carboxamide]  226 nM
4. CCCNS(=O)(=O)Nc1nccc(Cn2cc(C(N)=O)c(Nc3ccc(I)cc3F)c(F)c2=O)c1F [N-2, 5-fluoro-4-(2-fluoro-4-iodoanilino)-1-[[3-fluoro-2-(propylsulfamoylamino)pyridin-4-yl]methyl]-6-oxopyridine-3-carboxamide]  193 nM
5. COCCNS(=O)(=O)Nc1nccc(Cc2cc(C(=O)NOC)c(Nc3ccc(I)cc3F)n(C)c2=O)c1F [J-9, 2-(2-Fluoro-4-iodoanilino)-5-[[3-fluoro-2-(2-methoxyethylsulfamoylamino)pyridin-4-yl]methyl]-N-methoxy-1-methyl-6-oxopyridine-3-carboxamide]  167 nM
6. COCCNS(=O)(=O)Nc1nccc(Cc2cc(C(=O)NC3CC3)c(Nc3ccc(I)cc3F)n(C)c2=O)c1F [J-7, N-Cyclopropyl-2-(2-fluoro-4-iodoanilino)-5-[[3-fluoro-2-(2-methoxyethylsulfamoylamino)pyridin-4-yl]methyl]-1-methyl-6-oxopyridine-3-carboxamide]  101 nM

system: Calu-6 human lung cancer cells; test: Cell proliferation-inhibiting activity, Calu-6 (CellTiter-Glo, ATP in viable cells); type: cell-based; details: Calu-6, 96 h, Table 3, 4 days culture
Method: as §1, §2
Calu-6: Eagle's Minimum Essential Medium (Sigma); 4000 cells/95 μL

In order of rising IC50:
1. CCNS(=O)(=O)Nc1nccc(Cc2cc(C(N)=O)c(Nc3ccc(I)cc3F)cc2F)c1F [1-2, 5-[[2-(Ethylsulfamoylamino)-3-fluoropyridin-4-yl]methyl]-4-fluoro-2-(2-fluoro-4-iodoanilino)benzamide]  103 nM
2. NC(=O)c1cc(Cc2cccc(NS(=O)(=O)C3CCC3)c2F)c(F)c(F)c1Nc1ccc(I)cc1F [E-20, 5-[[3-(Cyclobulsulfonylamino)-2-fluorophenyl]methyl]-3,4-difluoro-2-(2-fluoro-4-iodoanilino)benzamide]  103 nM
3. CC1(NS(=O)(=O)Nc2nccc(Cc3cc(C(=O)NC4CC4)c(Nc4ccc(I)cc4F)c(F)c3F)c2F)CCC1 [A-47, N-Cyclopropyl-3,4-difluoro-2-(2-fluoro-4-iodoanilino)-5-[[3-fluoro-2-[(1-methylcyclobutyl)sulfamoylamino]pyridin-4-yl]methyl]benzamide]  104 nM
4. NC(=O)c1cc(Cc2cccc(NS(=O)(=O)C3COC3)c2F)c(F)c(F)c1Nc1ccc(I)cc1F [E-21, 3,4-Difluoro-2-(2-fluoro-4-iodoanilino)-5-[[2-fluoro-3-(oxetan-3-ylsulfonylamino)phenyl]methyl]benzamide]  109 nM
5. CCS(=O)(=O)Nc1cccc(Cc2cc(C(=O)NC3CC3)c(Nc3ccc(I)cc3F)c(F)c2F)c1F [D-8, N-Cyclopropyl-5-[[3-(ethylsulfonylamino)-2-fluorophenyl]methyl]-3,4-difluoro-2-(2-fluoro-4-iodoanilino)benzamide]  112 nM
6. COCCS(=O)(=O)Nc1cccc(Cc2cc(C(N)=O)c(Nc3ccc(I)cc3F)c(F)c2F)c1 [F-3, 3,4-Difluoro-2-(2-fluoro-4-iodoanilino)-5-[[3-(2-methoxyethylsulfonylamino)phenyl]methyl]benzamide]  118 nM
7. CCS(=O)(=O)Nc1nccc(Cc2cc(C(N)=O)c(Nc3ccc(I)cc3F)c(F)c2F)c1F [A-38, 5-[[2-(Ethylsulfonylamino)-3-fluoropyridin-4-yl]methyl]-3,4-difluoro-2-(2-fluoro-4-iodoanilino)benzamide]  122 nM
8. CCCS(=O)(=O)Nc1cccc(Cc2cc(C(N)=O)c(Nc3ccc(I)cc3F)c(F)c2F)c1F [E-18, 3,4-Difluoro-2-(2-fluoro-4-iodoanilino)-5-[[2-fluoro-3-(propylsulfonylamino)phenyl]methyl]benzamide]  122 nM
9. CCS(=O)(=O)Nc1cccc(Cc2cc(C(=O)NC3CC3)c(Nc3ccc(I)cc3F)n(C)c2=O)c1F [K-8, N-Cyclopropyl-5-[[3-(ethylsulfonylamino)-2-fluorophenyl]methyl]-2-(2-fluoro-4-iodoanilino)-1-methyl-6-oxopyridine-3-carboxamide]  122 nM
10. NC(=O)c1cc(Cc2cccc(NS(=O)(=O)CCCF)c2F)c(F)c(F)c1Nc1ccc(I)cc1F [E-15, 3,4-Difluoro-5-[[2-fluoro-3-(3-fluoropropylsulfonylamino)phenyl]methyl]-2-(2-fluoro-4-iodoanilino)benzamide]  152 nM
11. Cc1c(Nc2ccc(I)cc2F)c(C(N)=O)cn(Cc2ccnc(NS(=O)(=O)NC3(C)CCC3)c2F)c1=O [P-3, 4-(2-Fluoro-4-iodoanilino)-1-[[3-fluoro-2-[(1-methylcyclobutyl)sulfamoylamino]pyridin-4-yl]methyl]-5-methyl-6-oxopyridine-3-carboxamide]  223 nM
12. COCCNS(=O)(=O)Nc1nccc(Cc2cc(C(=O)NOC)c(Nc3ccc(I)cc3F)n(C)c2=O)c1F [J-9, 2-(2-Fluoro-4-iodoanilino)-5-[[3-fluoro-2-(2-methoxyethylsulfamoylamino)pyridin-4-yl]methyl]-N-methoxy-1-methyl-6-oxopyridine-3-carboxamide]  232 nM
13. CCCS(=O)(=O)Nc1nccc(Cc2cc(C(N)=O)c(Nc3ccc(I)cc3F)c(F)c2F)c1F [B-8, 3,4-Difluoro-2-(2-fluoro-4-iodoanilino)-5-[[3-fluoro-2-(propylsulfonylamino)pyridin-4-yl]methyl]benzamide]  233 nM
14. CNS(=O)(=O)Nc1nccc(Cc2cc(C(=O)NOC)c(Nc3ccc(Cl)cc3F)c(F)c2F)c1F [G-4, 2-(4-Chloro-2-fluoroanilino)-3,4-difluoro-5-[[3-fluoro-2-(methylsulfamoylamino)pyridin-4-yl]methyl]-N-methoxybenzamide]  259 nM
15. Cn1c(Nc2ccc(I)cc2F)c(C(N)=O)cc(Cc2ccnc(NS(=O)(=O)NC3(C)CCC3)c2F)c1=O [J-15, 2-(2-Fluoro-4-iodoanilino)-5-[[3-fluoro-2-[(1-methylcyclobutyl)sulfamoylamino]pyridin-4-yl]methyl]-1-methyl-6-oxopyridine-3-carboxamide]  284 nM
16. CC1(NS(=O)(=O)Nc2cccc(Cc3cc(C(=O)NC4CC4)c(Nc4ccc(I)cc4F)c(F)c3F)c2F)CCC1 [D-10, N-Cyclopropyl-3,4-difluoro-2-(2-fluoro-4-iodoanilino)-5-[[2-fluoro-3-[(1-methylcyclobutyl)sulfamoylamino]phenyl]methyl]benzamide]  307 nM
17. CCS(=O)(=O)Nc1nccc(Cc2cc(C(=O)NC3CC3)c(Nc3ccc(C4CC4)cc3F)c(F)c2F)c1F [G-7, N-Cyclopropyl-2-(4-cyclopropyl-2-fluoroanilino)-5-[[2-(ethylsulfonylamino)-3-fluoropyridin-4-yl]methyl]-3,4-difluorobenzamide]  443 nM
18. CCS(=O)(=O)Nc1nccc(Cn2cc(C(=O)NOC)c(Nc3ccc(I)cc3F)c(C)c2=O)c1F [P-5, 1-[[2-(ethylsulfonylamino)-3-fluoropyridin-4-yl]methyl]-4-(2-fluoro-4-iodoanilino)-N-methoxy-5-methyl-6-oxopyridine-3-carboxamide]  447 nM
19. CCS(=O)(=O)Nc1cc(Cc2cc(C(N)=O)c(Nc3ccc(I)cc3F)n(C)c2=O)ccn1 [J-12, 5-[[2-(Ethylsulfonylamino)pyridin-4-yl]methyl]-2-(2-fluoro-4-iodoanilino)-1-methyl-6-oxopyridine-3-carboxamide]  471 nM
